Measured values published in publication PMC7252619 (PLoS ONE, 2020).
Read-outs that look alike come from different tables or passages of the source.

Key:
Experiment in all cases: Kinase activity test (ReactionBiology), % enzyme activity relative to DMSO;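 as to remaining activity: FDA-approved drugs chosen by structure-based repositioning, each screened at 10 or 1 µM for kinase activity, expressed as percent of DMSO controls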
Assay type in all cases: biochemical
NEK2 = target: T1, NEK2 (Homo sapiens, UniProt P51955); settings: NEK2;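 also: FDA-approved drugs chosen by structure-based repositioning, each screened at 10 or 1 µM for kinase activity, expressed as percent of DMSO controls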
T1 construct: purchased ReactionBiology
T1 sequence (P51955 1-445): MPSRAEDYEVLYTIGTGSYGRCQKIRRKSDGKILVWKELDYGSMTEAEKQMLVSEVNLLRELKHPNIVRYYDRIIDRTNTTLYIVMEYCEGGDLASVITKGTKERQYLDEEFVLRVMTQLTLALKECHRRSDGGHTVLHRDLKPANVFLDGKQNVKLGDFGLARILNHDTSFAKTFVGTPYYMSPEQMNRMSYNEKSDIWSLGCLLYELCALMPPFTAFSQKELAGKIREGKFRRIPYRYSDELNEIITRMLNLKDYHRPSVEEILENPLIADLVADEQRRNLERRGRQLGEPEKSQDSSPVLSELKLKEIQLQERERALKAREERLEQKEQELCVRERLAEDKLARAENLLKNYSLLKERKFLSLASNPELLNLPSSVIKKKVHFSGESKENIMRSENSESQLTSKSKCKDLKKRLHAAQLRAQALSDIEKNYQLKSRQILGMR

CK1d = target: T2, CK1d (Homo sapiens, UniProt P48730); settings: CK1d; for % Enzyme Activity (relative to DMSO controls), Data 1: replicate Data 1; for % Enzyme Activity (relative to DMSO controls), Data 2: replicate Data 2
T2 construct: purchased ReactionBiology
T2 sequence (P48730 whole entry): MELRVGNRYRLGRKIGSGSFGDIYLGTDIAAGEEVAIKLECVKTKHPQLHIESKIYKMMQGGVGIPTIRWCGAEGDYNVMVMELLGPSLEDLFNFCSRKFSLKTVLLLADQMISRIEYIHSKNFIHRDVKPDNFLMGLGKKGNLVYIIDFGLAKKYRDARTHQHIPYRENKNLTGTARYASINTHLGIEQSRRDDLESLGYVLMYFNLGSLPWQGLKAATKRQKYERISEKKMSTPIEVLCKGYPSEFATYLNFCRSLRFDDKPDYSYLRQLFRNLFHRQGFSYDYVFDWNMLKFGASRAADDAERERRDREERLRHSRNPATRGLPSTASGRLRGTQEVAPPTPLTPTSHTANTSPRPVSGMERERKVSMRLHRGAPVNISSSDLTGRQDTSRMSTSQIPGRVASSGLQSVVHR

DAPK1 = target: T3, DAPK1 (Homo sapiens, UniProt P53355); settings: DAPK1; for % Enzyme Activity (relative to DMSO controls), Data 1: replicate Data 1; for % Enzyme Activity (relative to DMSO controls), Data 2: replicate Data 2
T3 construct: purchased ReactionBiology
T3 sequence (P53355 whole entry): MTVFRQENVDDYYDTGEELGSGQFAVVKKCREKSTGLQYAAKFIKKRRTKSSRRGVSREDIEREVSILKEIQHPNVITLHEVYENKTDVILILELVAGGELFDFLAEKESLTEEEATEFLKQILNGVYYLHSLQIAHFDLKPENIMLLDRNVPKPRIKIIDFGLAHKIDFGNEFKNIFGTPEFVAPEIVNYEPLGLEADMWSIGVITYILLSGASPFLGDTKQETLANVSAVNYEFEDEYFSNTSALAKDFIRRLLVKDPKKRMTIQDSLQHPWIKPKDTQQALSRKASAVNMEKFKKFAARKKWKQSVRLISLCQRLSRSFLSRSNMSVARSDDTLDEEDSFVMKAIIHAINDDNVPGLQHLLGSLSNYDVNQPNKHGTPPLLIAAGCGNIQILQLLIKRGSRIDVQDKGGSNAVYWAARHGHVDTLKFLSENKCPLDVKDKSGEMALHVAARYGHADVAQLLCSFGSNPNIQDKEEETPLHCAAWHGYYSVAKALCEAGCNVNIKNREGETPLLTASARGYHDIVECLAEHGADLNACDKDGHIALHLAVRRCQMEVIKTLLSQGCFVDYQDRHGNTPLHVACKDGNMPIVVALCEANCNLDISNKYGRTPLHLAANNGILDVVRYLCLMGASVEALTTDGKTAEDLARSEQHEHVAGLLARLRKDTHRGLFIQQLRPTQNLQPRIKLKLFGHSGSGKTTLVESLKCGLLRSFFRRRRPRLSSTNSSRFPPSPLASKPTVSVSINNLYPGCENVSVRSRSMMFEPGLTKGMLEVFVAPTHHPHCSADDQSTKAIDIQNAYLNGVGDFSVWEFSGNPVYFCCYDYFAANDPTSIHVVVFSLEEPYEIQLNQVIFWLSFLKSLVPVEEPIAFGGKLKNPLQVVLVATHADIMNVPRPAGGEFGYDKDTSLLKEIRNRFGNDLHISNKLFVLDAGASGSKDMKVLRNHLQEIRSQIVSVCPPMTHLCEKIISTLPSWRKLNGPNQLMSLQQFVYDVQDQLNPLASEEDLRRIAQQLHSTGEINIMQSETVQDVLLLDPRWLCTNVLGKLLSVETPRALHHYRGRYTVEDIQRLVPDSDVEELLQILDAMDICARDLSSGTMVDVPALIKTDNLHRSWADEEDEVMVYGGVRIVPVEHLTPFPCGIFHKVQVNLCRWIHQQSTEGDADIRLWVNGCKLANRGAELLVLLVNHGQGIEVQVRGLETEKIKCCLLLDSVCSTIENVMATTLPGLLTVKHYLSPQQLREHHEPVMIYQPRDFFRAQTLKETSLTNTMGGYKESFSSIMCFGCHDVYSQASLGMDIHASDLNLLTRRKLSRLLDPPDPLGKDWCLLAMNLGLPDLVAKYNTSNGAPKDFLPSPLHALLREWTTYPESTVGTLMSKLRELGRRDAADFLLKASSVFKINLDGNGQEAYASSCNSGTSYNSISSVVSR

VEGFR2 = VEGFR2 (Homo sapiens, UniProt P35968); design: purchased ReactionBiology; settings: VEGFR2; for % Enzyme Activity (relative to DMSO controls), Data 1: replicate Data 1; for % Enzyme Activity (relative to DMSO controls), Data 2: replicate Data 2;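 as to all read-outs here: VEGFR2 was one member of a ten-kinase screening panel testing marketed FDA-approved drugs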
VEGFR2, sequence (P35968 20-1356): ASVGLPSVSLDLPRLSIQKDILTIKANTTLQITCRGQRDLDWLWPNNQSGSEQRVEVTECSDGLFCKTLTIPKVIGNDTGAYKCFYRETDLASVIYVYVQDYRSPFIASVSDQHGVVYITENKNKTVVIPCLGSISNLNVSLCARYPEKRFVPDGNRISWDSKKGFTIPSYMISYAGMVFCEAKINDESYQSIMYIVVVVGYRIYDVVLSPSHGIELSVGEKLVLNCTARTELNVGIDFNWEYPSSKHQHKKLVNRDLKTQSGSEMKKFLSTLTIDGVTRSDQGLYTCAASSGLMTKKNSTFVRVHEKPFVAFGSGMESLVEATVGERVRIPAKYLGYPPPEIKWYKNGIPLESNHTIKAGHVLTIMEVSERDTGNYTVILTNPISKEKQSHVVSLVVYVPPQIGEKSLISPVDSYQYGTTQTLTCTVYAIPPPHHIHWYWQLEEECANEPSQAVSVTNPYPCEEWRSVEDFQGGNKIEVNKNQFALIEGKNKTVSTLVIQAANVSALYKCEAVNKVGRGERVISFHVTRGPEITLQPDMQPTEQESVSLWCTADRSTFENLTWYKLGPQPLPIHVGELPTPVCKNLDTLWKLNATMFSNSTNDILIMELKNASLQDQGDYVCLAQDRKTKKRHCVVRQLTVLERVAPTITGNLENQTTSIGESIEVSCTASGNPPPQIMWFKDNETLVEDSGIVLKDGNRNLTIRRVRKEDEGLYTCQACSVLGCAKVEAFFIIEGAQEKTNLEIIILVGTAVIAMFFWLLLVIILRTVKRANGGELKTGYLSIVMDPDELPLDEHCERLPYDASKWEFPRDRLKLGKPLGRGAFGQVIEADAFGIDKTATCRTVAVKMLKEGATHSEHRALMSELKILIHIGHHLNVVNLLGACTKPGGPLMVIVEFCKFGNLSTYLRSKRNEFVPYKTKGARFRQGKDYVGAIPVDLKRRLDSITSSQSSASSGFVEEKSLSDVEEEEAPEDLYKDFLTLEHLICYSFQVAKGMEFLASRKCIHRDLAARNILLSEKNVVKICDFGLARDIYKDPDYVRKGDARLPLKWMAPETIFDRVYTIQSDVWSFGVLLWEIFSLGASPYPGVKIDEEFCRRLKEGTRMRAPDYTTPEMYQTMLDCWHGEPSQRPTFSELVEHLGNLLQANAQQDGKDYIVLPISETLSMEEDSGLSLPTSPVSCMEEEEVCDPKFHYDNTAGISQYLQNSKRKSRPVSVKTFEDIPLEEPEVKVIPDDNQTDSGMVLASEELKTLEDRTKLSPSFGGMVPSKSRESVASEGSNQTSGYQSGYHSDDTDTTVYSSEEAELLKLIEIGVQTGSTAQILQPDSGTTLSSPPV

[1] = compound at 1 uM, average of Data 1 and Data 2
[2] = compound at 10 uM, average of Data 1 and Data 2

Compound | % Enzyme Activity (relative to DMSO controls), Average (NEK2; 1 uM, Average) [%] | % Enzyme Activity (relative to DMSO controls), Data 1 (NEK2; 1 uM, replicate Data 1) [%] | % Enzyme Activity (relative to DMSO controls), Data 2 (NEK2; 1 uM, replicate Data 2) [%] | % Enzyme Activity (relative to DMSO controls), Average (NEK2; 10 uM, Average) [%] | % Enzyme Activity (relative to DMSO controls), Data 1 (NEK2; 10 uM, replicate Data 1) [%] | % Enzyme Activity (relative to DMSO controls), Data 2 (NEK2; 10 uM, replicate Data 2) [%] | % Enzyme Activity (relative to DMSO controls), Average (NEK2; [1]) [%] | % Enzyme Activity (relative to DMSO controls), Data 1 (NEK2; compound at 1 uM, replicate 1) [%] | % Enzyme Activity (relative to DMSO controls), Data 2 (NEK2; compound at 1 uM, replicate 2) [%] | % Enzyme Activity (relative to DMSO controls), Average (NEK2; [2]) [%] | % Enzyme Activity (relative to DMSO controls), Data 1 (NEK2; compound at 10 uM, replicate 1) [%] | % Enzyme Activity (relative to DMSO controls), Data 2 (NEK2; compound at 10 uM, replicate 2) [%] | other results
CC(=O)OCC1=C(C(=O)O)N2C(=O)[C@@H](NC(=O)Cc3cccs3)[C@H]2SC1 [Cephalothin] |  |  |  |  |  |  | 98.03 | 94.64 | 101.41 | 78.52 | 86.91 | 70.13 | 
O=C(O)c1cc(-c2ccc(F)cc2F)ccc1O [Diflunisal] | 92.13 | 87.06 | 97.20 | 102.79 | 100.11 | 105.46 |  |  |  |  |  |  | % Enzyme Activity (relative to DMSO controls), Average (CK1d; 1 uM): 189.68%; % Enzyme Activity (relative to DMSO controls), Data 1 (CK1d; 1 uM): 106.89%; % Enzyme Activity (relative to DMSO controls), Data 2 (CK1d; 1 uM): 272.47%; % Enzyme Activity (relative to DMSO controls), Average (CK1d; 10 uM): 105.59%; % Enzyme Activity (relative to DMSO controls), Data 1 (CK1d; 10 uM): 104.76%; % Enzyme Activity (relative to DMSO controls), Data 2 (CK1d; 10 uM): 106.42%
Nc1nc2c(ncn2COC(CO)CO)c(=O)[nH]1 [Ganciclovir] |  |  |  |  |  |  | 111.12 | 112.02 | 110.21 | 89.44 | 97.24 | 81.63 | 
N[C@H]1C(O)O[C@H](CO)[C@@H](O)[C@@H]1O (some centres unmarked) [Glucosamine] | 82.84 | 79.92 | 85.75 | 95.78 | 90.86 | 100.69 |  |  |  |  |  |  | % Enzyme Activity (relative to DMSO controls), Average (DAPK1; 1 uM): 102.43%; % Enzyme Activity (relative to DMSO controls), Data 1 (DAPK1; 1 uM): 102.25%; % Enzyme Activity (relative to DMSO controls), Data 2 (DAPK1; 1 uM): 102.61%; % Enzyme Activity (relative to DMSO controls), Average (DAPK1; 10 uM): 123.43%; % Enzyme Activity (relative to DMSO controls), Data 1 (DAPK1; 10 uM): 142.72%; % Enzyme Activity (relative to DMSO controls), Data 2 (DAPK1; 10 uM): 104.13%
OC[C@@H](O)[C@@H](O)[C@H](O)[C@H](O)CO [Mannitol] |  |  |  |  |  |  | 113.06 | 110.81 | 115.31 | 102.41 | 100.39 | 104.43 | 
CC(=O)CCCCn1c(=O)c2c(ncn2C)n(C)c1=O [Pentoxifylline] | 90.71 | 91.06 | 90.35 | 88.11 | 86.43 | 89.78 |  |  |  |  |  |  | 
CCCc1nn(C)c2c(=O)[nH]c(-c3cc(S(=O)(=O)N4CCN(C)CC4)ccc3OCC)nc12 [Sildenafil] |  | 95.77 |  |  | 85.23 |  |  |  |  |  |  |  | % Enzyme Activity (relative to DMSO controls), Data 1 (CK1d; 1 uM): 107.72%; % Enzyme Activity (relative to DMSO controls), Data 1 (VEGFR2; 1 uM): 112.59%; % Enzyme Activity (relative to DMSO controls), Data 1 (VEGFR2; 10 uM): 111.96%
Cc1ccc(C(=O)c2ccc(CC(=O)O)n2C)cc1 [Tolmetin] |  |  |  |  |  |  | 115.23 | 120.50 | 109.96 | 107.09 | 112.71 | 101.47 | 
NC[C@H]1CC[C@H](C(=O)O)CC1 [Tranexamic acid] |  |  |  |  |  |  |  |  |  |  |  |  | remaining activity at 1 µM (NEK2; 1 uM, Average, read-out: % Enzyme Activity (relative to DMSO controls), Average): 72.5%; remaining activity at 1 µM (NEK2; 1 uM, replicate Data 1, read-out: % Enzyme Activity (relative to DMSO controls), Data 1): 60.7%; remaining activity at 1 µM (NEK2; 1 uM, replicate Data 2, read-out: % Enzyme Activity (relative to DMSO controls), Data 2): 84.2%; remaining activity at 10 µM (NEK2; 10 uM, Average, read-out: % Enzyme Activity (relative to DMSO controls), Average): 85.3%; remaining activity at 10 µM (NEK2; 10 uM, replicate Data 1, read-out: % Enzyme Activity (relative to DMSO controls), Data 1): 72.1%; remaining activity at 10 µM (NEK2; 10 uM, replicate Data 2, read-out: % Enzyme Activity (relative to DMSO controls), Data 2): 98.5%

Further lines, with some results ahead:

% Enzyme Activity (relative to DMSO controls), Average (NEK2; 1 uM, Average) [%] | % Enzyme Activity (relative to DMSO controls), Data 1 (NEK2; 1 uM, replicate Data 1) [%] | % Enzyme Activity (relative to DMSO controls), Data 2 (NEK2; 1 uM, replicate Data 2) [%] | % Enzyme Activity (relative to DMSO controls), Average (NEK2; 10 uM, Average) [%] | % Enzyme Activity (relative to DMSO controls), Data 1 (NEK2; 10 uM, replicate Data 1) [%] | % Enzyme Activity (relative to DMSO controls), Data 2 (NEK2; 10 uM, replicate Data 2) [%] | % Enzyme Activity (relative to DMSO controls), Average (NEK2; [1]) [%] | % Enzyme Activity (relative to DMSO controls), Data 1 (NEK2; compound at 1 uM, replicate 1) [%] | % Enzyme Activity (relative to DMSO controls), Data 2 (NEK2; compound at 1 uM, replicate 2) [%] | % Enzyme Activity (relative to DMSO controls), Average (NEK2; [2]) [%] | % Enzyme Activity (relative to DMSO controls), Data 1 (NEK2; compound at 10 uM, replicate 1) [%] | % Enzyme Activity (relative to DMSO controls), Data 2 (NEK2; compound at 10 uM, replicate 2) [%] | Compound | other results
93.64 | 83.95 | 103.33 | 100.63 | 101.40 | 99.86 |  |  |  |  |  |  | Nc1nc2c(ncn2COCCO)c(=O)[nH]1 [Acyclovir] | 
 |  |  |  |  |  | 107.09 | 107.23 | 106.95 | 94.02 | 94.51 | 93.52 | c1coc(CNc2ncnc3[nH]cnc23)c1 [Kinetin] | 
106.09 | 107.69 | 104.49 | 102.63 | 102.17 | 103.08 |  |  |  |  |  |  | CCc1nc(N)nc(N)c1-c1ccc(Cl)cc1 [Pyrimethamine] | % Enzyme Activity (relative to DMSO controls), Average (CK1d; 1 uM): 93.71%; % Enzyme Activity (relative to DMSO controls), Data 1 (CK1d; 1 uM): 95.24%; % Enzyme Activity (relative to DMSO controls), Data 2 (CK1d; 1 uM): 92.18%; % Enzyme Activity (relative to DMSO controls), Average (CK1d; 10 uM): 84.36%; % Enzyme Activity (relative to DMSO controls), Data 1 (CK1d; 10 uM): 85.89%; % Enzyme Activity (relative to DMSO controls), Data 2 (CK1d; 10 uM): 82.82%; % Enzyme Activity (relative to DMSO controls), Average (VEGFR2; 1 uM): 107.43%; % Enzyme Activity (relative to DMSO controls), Data 1 (VEGFR2; 1 uM): 104.33%; % Enzyme Activity (relative to DMSO controls), Data 2 (VEGFR2; 1 uM): 110.52%; % Enzyme Activity (relative to DMSO controls), Average (VEGFR2; 10 uM): 102.76%; % Enzyme Activity (relative to DMSO controls), Data 1 (VEGFR2; 10 uM): 106.39%; % Enzyme Activity (relative to DMSO controls), Data 2 (VEGFR2; 10 uM): 99.13%
103.04 | 108.18 | 97.89 | 95.93 | 101.42 | 90.43 |  |  |  |  |  |  | Cc1nc(=O)c2cc(CN(C)c3ccc(C(=O)N[C@@H](CCC(=O)O)C(=O)O)s3)ccc2[nH]1 [Raltitrexed] | % Enzyme Activity (relative to DMSO controls), Average (VEGFR2; 1 uM): 107.68%; % Enzyme Activity (relative to DMSO controls), Data 1 (VEGFR2; 1 uM): 107.41%; % Enzyme Activity (relative to DMSO controls), Data 2 (VEGFR2; 1 uM): 107.94%; % Enzyme Activity (relative to DMSO controls), Average (VEGFR2; 10 uM): 105.59%; % Enzyme Activity (relative to DMSO controls), Data 1 (VEGFR2; 10 uM): 105%; % Enzyme Activity (relative to DMSO controls), Data 2 (VEGFR2; 10 uM): 106.17%
92.40 | 91.41 | 93.38 | 107.92 | 110.57 | 105.26 |  |  |  |  |  |  | Nc1nc2[nH]cnc2c(=S)[nH]1 [Thioguanine] | 
